Patent publication US4524147A, “Uracil derivatives, process for preparing same, and pharmaceutical compositions comprising same” (Mitsui Toatsu Chemicals, Incorporated, priority 1981, dated 1985)
Structures can show the parent of a compound that is named as a salt.

How the values were obtained:
[1] = Test for acute oral toxicity; parameters: species or system mice (ddY strain; conditions: mouse, in vivo, 5 male ddY mice per group, observed for 7 days, estimated
Procedure: The toxicity of the active ingredients of some typical pharmaceutical composition of the present invention was examined in the following Evaluation Test 3.
[Test for acute oral toxicity]
Each of the compounds used in Evaluation Tests 1 and 2 was dissolved or suspended in physiological saline and administered orally to a group of 5 male mice of the ddY strain. The LD50 value of the compound was estimated by observing these animals for 7 days after administration.

delayed hypersensitivity = test: Augmentation test of delayed hypersensitivity (picryl chloride, mouse ear thickness); assay type: in vivo, mice (ICR strain, male); conditions: 50 mg/kg oral, simultaneously with sensitization; 24 hours after challenge; average of 16 measurements of 8 animals; * P<0.05 vs control
Description: These facts are more fully explained with reference to the following evaluation tests. A variety of experimental systems are being commonly used to test immunomodulatory activity in animals. Of such tests, the most typical one is an augmentation test of delayed hypersensitivity as shown below. […] L., and Ptak, W. "Contact and delayed hypersensitivity in the mouse I. Active sensitization and passive transfer," Immunology, 15, 405-416(1968)). In the following Evaluation Test 1, this experimental system was used to carry out an augmentation test of delayed hypersensitivity. [Augmentation test of delayed hypersensitivity] Male mice of the ICR strain, weighing approximately 30 g, were used in groups of eight. These animals were sensitized by shaving the hair on the abdomen and applying thereto a 3% solution of picryl chloride in a 4:1 mixture of olive oil and acetone. Simultaneously with this sensitization, each of two compounds of the present invention was dissolved or suspended in physiological saline containing 0.2% carboxymethyl cellulose and administered orally to the animals in a dose of 50 mg per kg of body weight. A control group was treated solely with physiological saline containing 0.2% carboxymethyl cellulose. Seven days after sensitization, delayed hypersensitivity was challenged by wrapping the tips of a forceps with pieces of felt, impregnating the felt with olive oil containing 1% picryl chloride, and pinching both ears of each animal. The thicknesses of the ears were measured before and 24 hours after the challenge, and the calculated percent increase of ear thickness (the average of 16 measurements made of the ears of 8 animals) is shown in Table 1. For purposes of comparison, the results of an experiment with Lavamisole hydrochloride are also given. The test results thus obtained were subjected to statistical analysis using the F.t test. The values marked with an asterisk (*) indicate that, when they were compared with the value of the control group, the differences were significant at P<0.05.

adjuvant arthritis = test: Adjuvant arthritis test (hind paw swelling); assay type: in vivo, rats (SD strain, male); conditions: 5 mg/kg subcutaneous, nine times before and after injection of adjuvant; left hind paw volume; * P<0.05 vs control
Procedure: The adjuvant arthritis induced in rats by injection of a tubercle bacillus adjuvant is frequently used as an experimental model for rheumatoid arthritis in man.
Although the mechanism by which this phenomenon occurs is not completely elucidated, cellular immunity is known to play an important role. Employing this well-known adjuvant arthritis test, the same compounds of the present invention were further examined for immunomodulatory activity.
[Adjuvant arthritis test]
An adjuvant was prepared by suspending 0.4 mg of killed and dried cells of the human type tubercle bacillus (Mycobacterium tuberclosis) in 0.1 ml of liquid paraffin, and inoculated intradermally into the right hind paw of 8-weeks-old male rats of the SD strain. Each of the two compounds of the present invention was subcutaneously administered nine times before and after injection of the adjuvant. These compounds were dissolved or suspended in physiological saline containing 0.2% carboxymethyl cellulose and administered in an amount of 5 mg per kg of body weight. The volume of the left hind paw of each animal was daily measured from the day of inoculation of the adjuvant to the end of the test, and the calculated percent inhibition of swelling is shown in Table 2. For purposes of comparison, the results of an experiment with Levamisole hydrochloride are also given. The test results thus obtained were subjected to statistical analysis using the F.t test. The values marked with an asterisk (*) indicate that, when they were compared with the value of a control group treated solely with physiological saline containing 0.2% carboxymethyl cellulose, the differences were significant at P<0.05.

Row | Structure (SMILES) | LD50 at 168 h [1] | Percent increase of ear thickness (delayed hypersensitivity) | Percent inhibition of swelling as compared with control group (average of 16-20 days) (adjuvant arthritis)
1 | c1ccc([C@H]2CN3CCSC3=N2)cc1 [Levamisole hydrochloride, reference compound] | 200 to 300 mg/kg | 31.2% | 19.8%
2 | O=C(C(=O)n1ccc(=O)[nH]c1=O)n1ccc(=O)[nH]c1=O [drawing 4] | – | 33.9% | –
3 | Cc1cn(C(=O)C(=O)n2cc(C)c(=O)[nH]c2=O)c(=O)[nH]c1=O [drawing 7] | – | – | 29.9%
4 | Cc1cn(C(=O)C(=O)n2cc(C)c(=O)[nH]c2=O)c(=O)[nH]c1=O [drawing 5] | – | 28.6% | –
5 | O=C(C(=O)n1ccc(=O)[nH]c1=O)n1ccc(=O)[nH]c1=O [drawing 6] | – | – | 41.4%
